Experimental data: patent publication US20220112479A1, “COMPOUNDS STABILIZING AMYLASES IN LIQUIDS” (BASF SE, priority 2018, published 2022)

Experiments:
Format in all cases: biochemical
Savinase Ultra 16.0L = molecular target: T1, Savinase Ultra 16.0L (Lederbergia lenta, UniProt P29600); experiment: protease storage stability in liquid formulation (Suc-AAPF-pNA substrate); conditions: storage at 37° C.
T1 construct: purchased Sigma-Aldrich
T1 sequence (P29600 1-269): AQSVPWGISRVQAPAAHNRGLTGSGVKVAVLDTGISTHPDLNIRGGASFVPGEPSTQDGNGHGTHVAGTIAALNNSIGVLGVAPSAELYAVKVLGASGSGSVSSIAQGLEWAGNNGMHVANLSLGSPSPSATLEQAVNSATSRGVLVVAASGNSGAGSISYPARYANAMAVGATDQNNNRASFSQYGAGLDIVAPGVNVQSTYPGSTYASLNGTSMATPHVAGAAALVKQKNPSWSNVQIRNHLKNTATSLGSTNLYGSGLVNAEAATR
How it was run: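 Savinase in liquid base formulations containing test salt, comparative compound or diethylene glycol; amounts given as active protein. Residual activity at set storage times measured with Suc-AAPF-pNA via pNA release at OD405, 20 °C. Activity expressed relative to reference formulation at time 0.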

Amy2=Amplify = experiment: amylase storage stability in liquid formulation (pNP release from Ethyliden-blocked-pNPG7); design: key: % of activity in reference formulation at time 0; conditions: storage at 37° C.
How it was run: (§1)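 Amylase (dosed as active protein) was stored at 37 °C in liquid base formulations with or without test or comparative compounds. Activity at set time points was measured as pNP release (A405) from blocked-pNPG7 with excess α-glucosidase, expressed relative to the reference formulation at time 0.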

Amy1=Stainzyme = experiment: as above; design: key: % of activity in reference formulation at time 0; conditions: base formulation I., 1.5 wt % component (a), storage at 37° C.
How it was run: as §1

[1] = base formulation I., 1.5 wt % component (a), 3 d
[2] = base formulation I., 1.5 wt % component (a), 7 d
[3] = base formulation I., 1.5 wt % component (a), 14 d
[4] = base formulation I., 1.5 wt % component (a), 21 d
[5] = base formulation I., 1.5 wt % component (a), 28 d
[6] = base formulation I., 1.5 wt % component (a), 42 d
[7] = base formulation I., 1.5 wt % component (a), T0
[8] = base formulation III., 1.5 wt % component (a), 3 d
[9] = base formulation III., 1.5 wt % component (a), 7 d
[10] = base formulation III., 1.5 wt % component (a), 14 d
[11] = base formulation III., 1.5 wt % component (a), 21 d
[12] = base formulation III., 1.5 wt % component (a), 28 d
[13] = base formulation III., 1.5 wt % component (a), 42 d
[14] = base formulation III., 1.5 wt % component (a), T0
[15] = base formulation V., 2.0 wt % component (a), 3 d
[16] = base formulation V., 2.0 wt % component (a), 7 d
[17] = base formulation V., 2.0 wt % component (a), 14 d
[18] = base formulation V., 2.0 wt % component (a), 21 d
[19] = base formulation V., 2.0 wt % component (a), 28 d
[20] = base formulation V., 2.0 wt % component (a), 42 d
[21] = base formulation V., 2.0 wt % component (a), T0

CCCOC(=O)CC(O)(CC(=O)OCCC)C(=O)OCCC [A.2, Tripropylcitrate]
protease activity, referring to reference formulation at time 0 (Savinase Ultra 16.0L; [1]): 100
protease activity, referring to reference formulation at time 0 (Savinase Ultra 16.0L; [2]): 95
protease activity, referring to reference formulation at time 0 (Savinase Ultra 16.0L; [3]): 90
protease activity, referring to reference formulation at time 0 (Savinase Ultra 16.0L; [4]): 85
protease activity, referring to reference formulation at time 0 (Savinase Ultra 16.0L; [5]): 81
protease activity, referring to reference formulation at time 0 (Savinase Ultra 16.0L; [6]): 71
protease activity, referring to reference formulation at time 0 (Savinase Ultra 16.0L; [7]): 101
protease activity, referring to reference formulation at time 0 (Savinase Ultra 16.0L; base formulation II., 1.5 wt % component (a), 3 d): 100
protease activity, referring to reference formulation at time 0 (Savinase Ultra 16.0L; base formulation II., 1.5 wt % component (a), 7 d): 96
protease activity, referring to reference formulation at time 0 (Savinase Ultra 16.0L; base formulation II., 1.5 wt % component (a), 14 d): 91
protease activity, referring to reference formulation at time 0 (Savinase Ultra 16.0L; base formulation II., 1.5 wt % component (a), 21 d): 87
protease activity, referring to reference formulation at time 0 (Savinase Ultra 16.0L; base formulation II., 1.5 wt % component (a), 28 d): 83
protease activity, referring to reference formulation at time 0 (Savinase Ultra 16.0L; base formulation II., 1.5 wt % component (a), 42 d): 72
protease activity, referring to reference formulation at time 0 (Savinase Ultra 16.0L; base formulation II., 1.5 wt % component (a), T0): 101
protease activity, referring to reference formulation at time 0 (Savinase Ultra 16.0L; [8]): 100
protease activity, referring to reference formulation at time 0 (Savinase Ultra 16.0L; [9]): 95
protease activity, referring to reference formulation at time 0 (Savinase Ultra 16.0L; [10]): 93
protease activity, referring to reference formulation at time 0 (Savinase Ultra 16.0L; [11]): 88
protease activity, referring to reference formulation at time 0 (Savinase Ultra 16.0L; [12]): 83
protease activity, referring to reference formulation at time 0 (Savinase Ultra 16.0L; [13]): 73
protease activity, referring to reference formulation at time 0 (Savinase Ultra 16.0L; [14]): 101
protease activity, referring to reference formulation at time 0 (Savinase Ultra 16.0L; [15]): 95
protease activity, referring to reference formulation at time 0 (Savinase Ultra 16.0L; [16]): 92
protease activity, referring to reference formulation at time 0 (Savinase Ultra 16.0L; [17]): 87
protease activity, referring to reference formulation at time 0 (Savinase Ultra 16.0L; [18]): 82
protease activity, referring to reference formulation at time 0 (Savinase Ultra 16.0L; [19]): 77
protease activity, referring to reference formulation at time 0 (Savinase Ultra 16.0L; [20]): 70
protease activity, referring to reference formulation at time 0 (Savinase Ultra 16.0L; [21]): 100
amylase activity, referring to reference formulation at time 0 (Amy2=Amplify; [8]): 102
amylase activity, referring to reference formulation at time 0 (Amy2=Amplify; [9]): 97
amylase activity, referring to reference formulation at time 0 (Amy2=Amplify; [10]): 93
amylase activity, referring to reference formulation at time 0 (Amy2=Amplify; [11]): 87
amylase activity, referring to reference formulation at time 0 (Amy2=Amplify; [12]): 81
amylase activity, referring to reference formulation at time 0 (Amy2=Amplify; [13]): 71
amylase activity, referring to reference formulation at time 0 (Amy2=Amplify; [14]): 100
amylase activity, referring to reference formulation at time 0 (Amy2=Amplify; [15]): 95
amylase activity, referring to reference formulation at time 0 (Amy2=Amplify; [16]): 90
amylase activity, referring to reference formulation at time 0 (Amy2=Amplify; [17]): 84
amylase activity, referring to reference formulation at time 0 (Amy2=Amplify; [18]): 76
amylase activity, referring to reference formulation at time 0 (Amy2=Amplify; [19]): 66
amylase activity, referring to reference formulation at time 0 (Amy2=Amplify; [20]): 54
amylase activity, referring to reference formulation at time 0 (Amy2=Amplify; [21]): 98
amylase activity, referring to reference formulation at time 0 (Amy1=Stainzyme; 3 d): 100
amylase activity, referring to reference formulation at time 0 (Amy1=Stainzyme; 7 d): 96
amylase activity, referring to reference formulation at time 0 (Amy1=Stainzyme; 14 d): 90
amylase activity, referring to reference formulation at time 0 (Amy1=Stainzyme; 21 d): 84
amylase activity, referring to reference formulation at time 0 (Amy1=Stainzyme; 28 d): 79
amylase activity, referring to reference formulation at time 0 (Amy1=Stainzyme; 42 d): 66
amylase activity, referring to reference formulation at time 0 (Amy1=Stainzyme; T0): 101

CCOC(=O)CC(CC(=O)OCC)(OC(C)=O)C(=O)OCC [A.5, Acetyltriethylcitrate]
protease activity, referring to reference formulation at time 0 (Savinase Ultra 16.0L; [1]): 96
protease activity, referring to reference formulation at time 0 (Savinase Ultra 16.0L; [2]): 90
protease activity, referring to reference formulation at time 0 (Savinase Ultra 16.0L; [3]): 84
protease activity, referring to reference formulation at time 0 (Savinase Ultra 16.0L; [4]): 80
protease activity, referring to reference formulation at time 0 (Savinase Ultra 16.0L; [5]): 76
protease activity, referring to reference formulation at time 0 (Savinase Ultra 16.0L; [6]): 62
protease activity, referring to reference formulation at time 0 (Savinase Ultra 16.0L; [7]): 98
protease activity, referring to reference formulation at time 0 (Savinase Ultra 16.0L; [8]): 98
protease activity, referring to reference formulation at time 0 (Savinase Ultra 16.0L; [9]): 92
protease activity, referring to reference formulation at time 0 (Savinase Ultra 16.0L; [10]): 83
protease activity, referring to reference formulation at time 0 (Savinase Ultra 16.0L; [11]): 79
protease activity, referring to reference formulation at time 0 (Savinase Ultra 16.0L; [12]): 71
protease activity, referring to reference formulation at time 0 (Savinase Ultra 16.0L; [13]): 65
protease activity, referring to reference formulation at time 0 (Savinase Ultra 16.0L; [14]): 100
amylase activity, referring to reference formulation at time 0 (Amy2=Amplify; [8]): 96
amylase activity, referring to reference formulation at time 0 (Amy2=Amplify; [9]): 92
amylase activity, referring to reference formulation at time 0 (Amy2=Amplify; [10]): 87
amylase activity, referring to reference formulation at time 0 (Amy2=Amplify; [11]): 78
amylase activity, referring to reference formulation at time 0 (Amy2=Amplify; [12]): 71
amylase activity, referring to reference formulation at time 0 (Amy2=Amplify; [13]): 55
amylase activity, referring to reference formulation at time 0 (Amy2=Amplify; [14]): 96
amylase activity, referring to reference formulation at time 0 (Amy1=Stainzyme; 3 d): 91
amylase activity, referring to reference formulation at time 0 (Amy1=Stainzyme; 7 d): 80
amylase activity, referring to reference formulation at time 0 (Amy1=Stainzyme; 14 d): 72
amylase activity, referring to reference formulation at time 0 (Amy1=Stainzyme; 21 d): 63
amylase activity, referring to reference formulation at time 0 (Amy1=Stainzyme; 28 d): 55
amylase activity, referring to reference formulation at time 0 (Amy1=Stainzyme; 42 d): 37
amylase activity, referring to reference formulation at time 0 (Amy1=Stainzyme; T0): 97
